Assay [1] deals with empty disulfide-stabilized HLA-A*02:01(Y84C/A139C) complex of heavy chain and beta-2 microglobulin (human). The experiment in a line: nanoscale differential scanning fluorimetry (nDSF, thermal stabilisation). In general terms: DSF heats the sample and reads unfolding from a dye or from intrinsic fluorescence.
The target is the same in assay [2]. The experiment in a line: native MS.
The target of assay [3] is empty disulfide-stabilized HLA-A*02:01(Y84C/A139C) in complex with beta-2 microglobulin (human). The experiment in a line: isothermal analysis of nanoscale differential scanning fluorimetry (iDSF).
For assay [4] the target is unchanged. The experiment in a line: native MS.
The target of assay [5] is T1, dsA2: HLA-A*02:01(Y84C/A139C) disulfide mutant heavy chain / β2m complex (Homo sapiens, UniProt P04439, D140Y/D185E/D98H/E176V/E277Q/G131W/G231S/I119V/I121R/I166T/I218V/L300P/L318F/N151K/N90K/P208A/P217A/Q86G/Q94H/R138H/R169H/T345S/A163C/Y108C).
T1 construct: made in house; host or cells: Escherichia coli (pET3a)
The experiment in a line: nanoscale differential scanning fluorimetry (nDSF) thermal stability. Format: binding. The settings on record: for Tm: dsA2 2 µM, at least two independent measurements.

The target in assay [6] is T1, dsA2: HLA-A*02:01(Y84C/A139C) disulfide mutant heavy chain / β2m complex. The experiment in a line: native mass spectrometry (nMS) of peptide binding to empty dsA2.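 Also: native nano-electrospray MS on Q-Tof II in positive mode, dsA2 at 10 µM with peptide 50–200 µM, incubated ≥10 min on ice, argon collision gas.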 The settings on record: cone 150 V, ratio 1:5, raw data, mean of >=3 measurements.
Assay [7] addresses empty disulfide-stabilized HLA-A*02:01(Y84C/A139C) in complex with beta-2 microglobulin (human). The experiment in a line: isothermal analysis of nanoscale.
The target in assay [8] is empty disulfide-stabilized HLA-A*02:01(Y84C/A139C) complex of heavy chain and beta-2 microglobulin (human). The experiment in a line: native MS. The source holds these as a separate data set.
Assay [9] shares this target. The experiment in a line: nanoscale differential scanning f.

Where “and” joins values, the source holds several entries; their conditions need not be identical. Equal values may be shown once.

On to “Ac-NV9-NH2, NV9 with an acetylated N-terminus and an amidated C-terminus (peptide)”, for which the ∆Tm in [1] worked out at 2.7 K. For the same molecule, the dissociation constant (Kd) (as a rule, a measure of binding affinity in units of concentration) in [2] stood at 7 µM.
On to “LV8 (LVPMVATV), truncated NV9 variant (peptide)”, for which the dissociation constant Kd is 0.008 µM in assay [3] and 17 µM in [4].
In the case of “LV8, NV9 without the N-terminal asparagine (peptide)”, the ∆Tm in assay [1] came out at 11.6 K. Besides, in assay [2], the Kd is 0.07 µM.
In the case of “NP4 (NLVP), truncated NV9 variant (peptide)”, the Kd is 50 µM in [3]; 350 µM and 100 µM in assay [4].
As for “NT8 (NLVPMVAT), truncated NV9 variant (peptide)”, the Kd was found to be 2.6 µM in assay [3] and 92 µM in assay [4].
Take “NT8, NV9 without the C-terminal valine (peptide)”: in assay [2], the Kd is 30 µM.
Take YPNVNIHNF [YF9, reference compound]: the midpoint of thermal melting (Tm) (as a rule, the temperature at the midpoint of the melting transition) was found to be 36.1 °C in assay [5] (peptide 0.2 µM), 36.1 °C in assay [5] (peptide 2 µM) and 36.2 °C in assay [5] (peptide 20 µM). In addition, the “∆Tm of dsA2 by peptide binding” value in assay [5] (protein-peptide ratio 1:10 (dsA2 2 µM), relative to empty dsA2 Tm 35.7 ± 0.6 °C, citrate phosphate buffer pH 7.6, duplicates) came to 1 ± 1 K. In addition, the “AUC dsA2 (empty)” value was 56 ± 3% and 56% in [6] (acceleration voltage 10 V); 51% in [6] (acceleration voltage 25 V); 95% in assay [6] (acceleration voltage 50 V). Further, the “AUC dsA2/erucamide” value in [6] (acceleration voltage 10 V) is 39 ± 2% and 39%; in assay [6] (acceleration voltage 25 V), 44%; in assay [6] (acceleration voltage 50 V), 2%. The “AUC dsA2/pep” value in assay [6] (acceleration voltage 10 V) was 4 ± 2% and 4%; in [6] (acceleration voltage 25 V), 5%; in [6] (acceleration voltage 50 V), 5%. For the same molecule, the “AUC dsA2/pep/pep” value in assay [6] (acceleration voltage 10 V), in [6] (acceleration voltage 25 V) and in assay [6] (acceleration voltage 50 V) was 0% throughout.
As to GLGGGGGGV [GV9 (…), simplified NV9 derivative that retains the anchor residues L and V], the equilibrium dissociation constant (Kd) in assay [7] is 0.36 µM.
For the molecule GLGGGGGGV [GV9, simplified NV9 derivative that retains the anchor residues L and V], the other was 43% in [8] and 6.4 K in assay [9].

Values taken from publication PMC9127112, “Opening opportunities for Kd determination and screening of MHC peptide complexes” (Communications Biology, 2022).
